Experiments:
[1] = system: isolated rabbit thoracic aorta preparations; assay: Assay on vascular tone (vasorelaxation of methoxamine-precontracted aortic rings); conditions: rabbit aortic rings precontracted with methoxamine 3 μM
Method: The ability of the compounds of the invention to induce vasorelaxation in comparison to precursor compounds was tested in vitro in isolated rabbit thoracic aorta preparations (Wanstall J. C. et al., Br. J. Pharmacol., 134:463-472, 2001). Male New Zealand rabbits (1,8-2 Kg) were used. The animals were anaesthetized with sodium thiopental (50 mg/kg, iv), sacrificed by exsanguinations and then the thorax was opened and the aorta dissected. The aortas were placed immediately in Krebs-HEPES buffer (pH 7.4; composition mM: NaCl 130.0, Kcl 3.7, […] 14.9, KH2PO4 1.2, MgSO4.7H2O 1.2, Glucose 11.0, HEPES 10.0, CaCl2.2H2O 1.6) and cut into ring segments (4-5 mm in length). Each ring was placed in a 5 ml tissue bath filled with Krebs-HEPES buffer (37° C.) aerated with 95% O2 and 5% CO2 and was then attached to a force transducer (Grass FT03), connected to a BIOPAC MP150 System for measurement of the isometric tension^2. The preparations were allowed to equilibrate for 1 h at a resting tension of 2 g with changes of the buffer every 15 minutes and then stimulated by exposure to 90 mM KCl (3 times) with intervening washings. After equilibration, the rings were precontracted submaximally with methoxamine (3 μM) and, when the contraction reach a steady state a cumulative concentration-response curve to the test compounds was obtained. The time intervals between doses were based on the time needed to reach a full a steady state response.
Responses to test compounds were expressed as a percentage of residual contraction and plotted against concentration of test compound. EC50 values (where EC50 is the concentration producing 50% of the maximum relaxation to the test compound) were interpolated from these plots.

[2] = system: VEGF-induced leakage rat model; assay: VEGF-induced retinal vascular leakage rat model (Evans blue); type: in vivo; conditions: 25 μg/eye intravitreal, VEGF 100 ng/eye, 18 hours after injection
Method: Pupils were dilated with 1% topical cyclopentolate hydrochloride to see the needle to guide the intravitreal injection. Recombinant rat vascular endothelial growth factor (VEGF; 100 ng/eye) or VEGF at 100 ng/eye plus test compounds were prepared in 0.5% carboxymethyl cellulose (CMC) in sterile saline and was injected into the vitreous with a 30-gauge needle (Xu, Q., et al. Invest. Ophthalmol. Vis. Sci., 42:789-794, 2001). The compounds of the invention were compared to corresponding steroid cores at equimolar doses. […] Control animals received vehicle. Compound (18) was similarly dosed alongside triamcinolone acetonide for comparison.
Retinal vascular leakage was measured as described previously (Xu, Q., et al. Invest. Ophthalmol. Vis. Sci., 42:789-794, 2001). After about 18 hours post injection of test compounds, rats were anesthetized with ketamine (80 mg/kg) and xylazine (4 mg/kg) IP. Then 45 mg/kg Evans blue (EB) was injected into the jugular vein. The dye was allowed to circulate for 2 hours. The chest cavity was opened and rats then perfused with 1% formalin in 0.5 M citrate buffer (pH 3.5, 37° C.) through the left ventricle. Retinas were carefully dissected from enucleated eyes, placed in pre-weighed Eppendorf tubes, dried in speed vacuum overnight and dry weights recorded. Evans blue was extracted by incubating each retina in 120 μl formamide for 18 hours at 70° C., centrifuged for 2 hours at 6000 rpm. Absorbance of 60 μl of extract was measured at 620 nm and background absorbance was determined at 740 nm. Net absorbance was calculated by subtracting the background 740 nm from that at 620 nm. Measurement of a standard curve of Evans blue in formamide was also done and Evans blue leakage expressed as μl/g/h was calculated as shown below: [EB(ng/ml)×120 (μl)×1000]/[dry weight retina (mg)×circulation time (h)×plasma EB(ng/ml)×100]

ophthalmic artery = assay: Ocular haemodynamics (Color Doppler Imaging, Pourcelot Resistance Index) in ET-1 induced ischemia; type: in vivo, rabbit
Method: Haemodynamic evaluations were performed using an eco-color-doppler DynaView TM II SSD-1700 (Aloka Holding Europe AG, Milan, Italy). All animals underwent Color Doppler Imaging (CDI) investigation before ET-1 injection (T0), before the start of drug instillation (T2) and at the end of the drug treatment (T6). Special attention was devoted to the evaluation of ophthalmic and ciliary artery circulation. Blood flow velocities were measured for each vessel and the Pourcelot Resistance Index (RI) was calculated (Galassi F. et al., Acta Opht. Scand Suppl. (2000) 37-38).

TNFα = TNFα content in aqueous humor (ELISA), ET-1 induced ischemia; type: in vivo, rabbit; conditions: ET-1 treated rabbits; 0.5 mg (equivalent)/eye IVT
Method: (§1) Aqueous humor samples were withdrawn from both anterior and posterior chamber fluids of each eye before ET-1 administration (T0), before the administration of Compound (1) or fluorocinolone acetonide (T2), and at the end of treatments (T6). The same volume of saline were reintroduced every time. The aqueous humor samples were immediately frozen at −80° C. until use.
(§2) Tumor necrosis factor (TNFα) and interleukin 6 (IL-6) were determined in aqueous humor with a commercial kit using an ELISA method (Amersham Pharmacia Biotech). The minimum detectable concentrations were 0.10 pg/ml for IL-6 and TNFα. The interassay coefficient of variation was 0.7% for all assays.

VEGF = VEGF content in aqueous humor, ET-1 induced ischemia; type: in vivo, rabbit; conditions: ET-1 treated rabbits; 0.5 mg (equivalent)/eye IVT
IL-6 = IL-6 content in aqueous humor (ELISA), ET-1 induced ischemia; type: in vivo, rabbit; conditions: ET-1 treated rabbits; 0.5 mg (equivalent)/eye IVT
Method: as §1, §2

retinal tissue = assay: Retina protection: morphological analysis, ET-1 induced ischemia; type: in vivo, rabbit; conditions: long term ET-1 treatment; 0.5 mg (equivalent)/eye IVT
Method: The eyes of each animal was enucleated, cornea and crystalline were removed and the eyes was paraformaldehyde-fixed. Then samples were dehydrated with increasing alcohol concentration (50°-75°-95°-100°). After 95° alcohol treatment, the eyes were divided into two parts following a longitudinal plain from cornea to insertion of optical nerve. Thus the samples were paraffin-embedded. Section 8 μm thick were stained with Haematoxylin-Eosin. Microscopical fields were registered by digitizing camera applied a light microscope with a 20× and 40× objective. On the digitized images was performed a morphological analysis of retinal tissue.

[3] = system: New Zealand White rabbits; assay: Electroretinogram (ERG) in ET-1 induced ischemia; conditions: after ET-1 treatment; 0.5 mg (equivalent)/eye IVT
Method: Twenty adult male New Zealand Albino rabbits weighing 2-2.5 Kg were used for the experiments. The animals were divided in two groups for the specific treatment chosen. The experimental procedures were conform to those of the Association for Research in Vision and Ophthalmology Resolution on the use of animals and in agreement with the Good Laboratory Practice for the use of animals and were conducted upon authorization of Italian regulation on protection of animals used for experimental and other scientific purpose (DM 116/1992) as well as with the European Union Regulations (OJ of ECL 358/1, Dec. 12, 1986). The rabbits were kept in individual cages, food and water was provided ad libitum. […]
The Electroretinogram (ERG) was performed in basal condition (T0), before the start of drug treatment (T2) and at the end of drug treatment (T6). […] The eyes were dilated by topical application of tropicamide (1%), adapted to darkness for at least 2 hours, and standard ERGs recorded in both eyes using corneal electrodes. […] The ERG signals were recorded using Retimax (CSO, Florence, Italy). The dark-adapted scotopic response (rod response) and scotopic flash response (photopic erg cone), were recorded. […] An average of three separate ERGs was determined for each eye. The amplitude (uV) of a- and b-waves were calculated for each step. […]

[4] = system: New Zealand White rabbits; assay: Intraocular pressure in endothelin-1 (ET-1) induced ischemia
Method: Twenty adult male New Zealand Albino rabbits weighing 2-2.5 Kg were used for the experiments. The animals were divided in two groups for the specific treatment chosen. […] The rabbits were kept in individual cages, food and water was provided ad libitum. The animals were maintained on a 12-12 h light/dark cycle in a temperature controlled room (22°-23° C.).
Ischemia model of optic injury was obtained throughout by injection, twice a week, for 6 weeks, of endothelin-1 (ET-1) 250 nM, 500 μl of sterile saline, into the posterior vitreous body of both eyes, using a lachrymal cannula, under general anesthesia produced by tiletamine plus zolazepam (Zoletil 100, 0.05 mg/kg) plus xilazine (Xilor 2%, 0.05 ml/kg) i.m.
Fluocinolone acetonide (FC) (0.5 mg/eye in 100 μl of vehicle) or Compound (1) (0.5 mg equivalent/eye in 100 μl of vehicle) were instilled intravitreally (IVT) two weeks after the start of ET-1 treatment (T2), in one eyes, the same volume of vehicle was instilled in the other eye.
Intraocular pressure (TOP) was measured twice a using a Tono-Pen XL (Medtronic Solan. USA) as described by Maren's group (Exp. Eye Res. (1992) 55: 73-79; Exp. Eye Res. (1993) 57: 67-78) with a two-point standard pressure measurement.

Brown Norway rats = assay: Steroid-induced intraocular pressure (IOP) elevation in rats after intravitreal injection; conditions: for IOP increase: one week after injection, baseline 18 mm Hg
Source text: Male Brown Norway rats (250-275 g; Charles River laboratory) were acclimated for a week before IOP measurements. Baseline IOP measurements with Tonolab Tonometer (Tiolat Inc) were done in conscious rats (Pease, M. E., et al J. Glaucoma, 15:512-519, 2006) before intravitreal injection of test compounds. Then the rats were anesthetized with isoflurane inhalation and a drop of 0.5% tetracaine was topically applied on the eyes. Pupils were dilated with 1% topical cyclopentolate hydrochloride and 2.5% phenylephrine HCl to see the needle to aim the intravitreal injection of test compounds. […] For example, to compare to fluocinolone acetonide at both 25 and 50 μg/eye, compound (1) was dosed at 42.4 and 84.7 μg/eye, respectively. The des-nitro analog of compound (1) was dosed at 39.1 μg/eye (equivalent for 25 μg FC). Control animals received vehicle.
Five measurements were averaged for each time point. IOP measurements were taken at one and two weeks after intravitreal injection of test compounds.

For `CC1(C)O[C@@H]2C[C@H]3[C@@H]4C[C@H](F)C5=CC(=O)C=C[C@]5(C)[C@@]4(F)[C@@H](O)C[C@]3(C)[C@]2(C(=O)CO)O1` [FC, Fluocinolone acetonide], the “EC50 (concentration producing 50% of the maximum relaxation)” value [1] was “no effect”, the “inhibition of VEGF-induced leakage” value [2] was 86.1% and the “Resistence Index” value (ophthalmic artery; After 2 weeks (before drug instillation, T2)) was 0.45 ± 0.06. For the same molecule, the “Resistence Index” value (ophthalmic artery; After 6 weeks (end of drug treatment), 0.5 mg (equivalent)/eye IVT) was 0.60 ± 0.04, the “Resistence Index” value (ophthalmic artery; Basal) was 0.45 ± 0.06 and the “TNFα content in aqueous humor” value (TNFα) was 20.76 ± 1.74 pg/mL. For the same molecule, the “VEGF content in aqueous humor” value (VEGF) was 114.58 ± 5.61 pg/mL, the “IL6 content in aqueous humor” value (IL-6) was 16.82 ± 0.98 pg/mL and the “ET-1 induced morphological changes of retinal tissue” value (retinal tissue) was “not effective”. The “Photopic erg cone (amplitude)” value [3] was 136.34 ± 11.98 μV, the IOP ([4]; ET-1, 0.5 mg (equivalent)/eye IVT given at T2) was 13.00 ± 2.83 mmHG and the IOP ([4]; I week, 0.5 mg (equivalent)/eye IVT, ET-1 ischemia) was 15.50 ± 0.71 mmHG. For the same molecule, the IOP ([4]; II week, 0.5 mg (equivalent)/eye IVT, ET-1 ischemia) was 19.00 ± 0.00 mmHG, the IOP ([4]; III week, 0.5 mg (equivalent)/eye IVT, ET-1 ischemia) was 19.00 ± 1.41 mmHG and the IOP ([4]; IV week, 0.5 mg (equivalent)/eye IVT, ET-1 ischemia) was 20.80 ± 0.71 mmHG. The IOP ([4]; V week, 0.5 mg (equivalent)/eye IVT, ET-1 ischemia) was 22.20 ± 0.00 mmHG, the IOP ([4]; VI week, 0.5 mg (equivalent)/eye IVT, ET-1 ischemia) was 21.10 ± 0.00 mmHG and the IOP ([4]; basal, 0.5 mg (equivalent)/eye IVT given at T2) was 13.50 ± 0.17 mmHG. For the same molecule, the “IOP compared to compound (1) at 42.4 μg/eye (FIG. 4)” value (Brown Norway rats; 25 μg/eye intravitreal) was “increase in IOP”, the IOP increase (Brown Norway rats; 25 μg/eye intravitreal) was 4 mm Hg and the IOP increase (Brown Norway rats; 50 μg/eye intravitreal) was 3 mm Hg. The “IOP increase after two weeks” value (Brown Norway rats; 25 and 50 μg/eye intravitreal, two weeks after injection) was “maintained”.

Source: patent US9012435B2, “Glucocorticoids attached to nitrate esters via an aromatic linker in position 21 and their use in ophthalmology” (Nicox S.A., priority 2008, dated 2015)
